We go through five compounds from patent US20060229433A1, “Modified antiviral peptides with increased activity and cell membrane affinity” (priority 2003, published 2006).

Values joined by “and” are separate entries in the source; they are usually repeats but may differ in a detail not shown here. Equal values may be shown once. Bridge positions count the residues as written; N and C are the ends. Square brackets hold non-standard residues; d marks the D form. Peptide text beside a SMILES is read from it. I, II: the chains in the order shown. Ava = NCCCCC(=O)O

Experiment [1] deals with HIV-1 89.6 subtype B dualtropic (X4R5). The settings on record: PBMC, Table 5.
Experiment [2] deals with HIV-1 NL 4-3. Put plainly: HIV-1 infection of C8166 cells (syncytia formation, p24 ELISA) with HIV-1 NL 4-3. Format: cell-based. The settings on record: for IC50: C8166 cells, HIV-1 subtype B NL 4-3, Table 3. As for the experimental part:
(§1) HIV-1 NL 4-3 isolate (Adachi et al., 1986; Barré-Sinoussi et al., 1983) and highly cytopathic Zairian HIV-1 NDK isolate (Ellrodt et al., 1984) was propagated in permissive CEM cells (Nara et al., 1987). Uninfected CEM and C8166 (Salahuddin et al., 1983) were maintained in RPMI 1640 (R10) with ultraglutamine (cambrex, Vervier, Belgium), penicillin (100 U/ml), streptomycin (100 μg/ml), and 10% heat-inactivated fetal calf serum (Cambrex).
(§2) Samples of 3×10^5/100 μL C8166 cells were preincubated in 96-well microtiter plates in culture medium containing various concentrations of peptide. After a 1 h treatment at 37° C., 100 μl of diluted viral solution of HIV-1 was added. The cells were exposed to the virus for 1 h at 37° C. at a multiplicity of infection of 1000 TCID50 per ml. The cells were washed three times and cultured at 3×10^5/ml of R10 with the treatment in 24-well plates incubated at 37° C. C8166 culture medium was replaced at Day-4 post-infection. The treatment was permanent before virus adsorption, during virus adsorption and after infection. Assays on C8166 cells have been performed at least twice and in duplicate. Toxicity was evaluated by daily cell count and trypan-blue exclusion assay. Infection of C8166 T-cells with HIV-1 was assessed by virus-induced cytopathic effects (syncytia formation) and by quantification of cell free p24 viral protein in the culture supernatants. Measurements of HIV-1 p24^gag concentration in the culture supernatants were achieved by ELISA (ALLIANCE® HIV-1 p24 kit, Perkin Elmer, life sciences, USA).
On the technique in general: ELISA stands for enzyme-linked immunosorbent assay.

Experiment [3] deals with HIV-1 NL 4-3. Put plainly: Infection of human peripheral blood lymphocytes (PBL) with NL 4-3 strain, p24 ELISA. Format: cell-based. As for the experimental part: Peripheral blood lymphocytes from an HIV-1 negative donor were grown as described earlier, maintained in RPMI 1640 with ultraglutamine, supplemented with IL2 (20 μg/ml), penicillin (100 U/ml), streptomycin (100 μg/ml), and 10% heat-inactivated fetal calf serum. Cells were stimulated three days in the medium supplemented with phytohemagglutinin (20 U/ml PHA P, DIFCO, Detroit Mich.).
Samples of 10^6/100 μL PBL cells were preincubated in 96-well microtiter plates in culture medium containing various concentrations of peptides. After a 1 h treatment at 37° C., 100 μl of diluted viral solution of HIV-1 was added. The cells were exposed to the virus for 1 h at 37° C. at a multiplicity of infection of 1000 TCID50 per ml. The cells were washed three times and cultured at […] of medium with the treatment in 24-well plates incubated at 37° in culture medium with the peptides in 5% CO2. The treatment was permanent before virus adsorption, during virus adsorption and after infection. The PBL culture medium was replaced every 3-4 days during three weeks always in the presence of peptide. The cell viability was assessed by cell counts and trypan-blue exclusion assay. The viral production in the culture supernatant was quantified by p24 ELISA test, as described earlier. All the experiments have been done in blind-tests. Tests have been done in duplicate.

Experiment [4] relates to HIV-1 NL 4-3. As to the kind of experiment: HIV-1 infection of C8166 cells (syncytia formation, p24 ELISA) with HIV-1 NL 4-3. The note with it: Table 2. On the set-up: key: ++, +, (+), (+)− and − represent decreasing numbers of syncitia formed.; ++, +, (+), (+)− and − represent decreasing numbers of syncitia formed.; ++, +, (+), (+)− and − represent decreasing numbers of syncitia formed.; ++, +, (+), (+)− and − represent decreasing numbers of syncitia formed.; ++, +, (+), (+)− and − represent decreasing numbers of syncitia formed. The class given is cell-based. As for the experimental part:
as §1, §2

The test system of experiment [5] is HIV-1 NL 4-3. Described as above. Format: cell-based. On the set-up: key: ++, +, (+), (+)− and − represent decreasing numbers of syncitia formed; ++, +, (+), (+)− and − represent decreasing numbers of syncitia formed; ++, +, (+), (+)− and − represent decreasing numbers of syncitia formed; ++, +, (+), (+)− and − represent decreasing numbers of syncitia formed; ++, +, (+), (+)− and − represent decreasing numbers of syncitia formed. The settings on record: Table 1. As for the experimental part: as §1, §2

Usually IC50 stands for the concentration at which inhibition is half-maximal. In the case of `CC(C)C[C@H](NC(=O)[C@@H]1CCCN1C(=O)[C@H](CO)NC(=O)[C@H](Cc1ccc(O)cc1)NC(=O)CNC(=O)[C@H](CCC(N)=O)NC(=O)[C@@H](N)CCCNC(=N)N)C(=O)NCCCC[C@H](NC(=O)[C@H](CC(C)C)NC(=O)[C@@H]1CCCN1C(=O)[C@H](CO)NC(=O)[C@H](Cc1ccc(O)cc1)NC(=O)CNC(=O)[C@H](CCC(N)=O)NC(=O)[C@@H](N)CCCNC(=N)N)C(=O)NCCCCC(=O)O` [RL dimer valeric acid, (RQGYSPL)2-K—NHCH2CH2CH2CH2COOH] (I: H-RQGYSPLK[Ava]-OH / II: H-RQGYSPL; amide I:8-II:C; N-terminus assumed), the IC50 in experiment [1] stood at 10 nM; with HIV-1 NL 4-3 [2], 50 nM; in the experiment on HIV-1 NL 4-3 [3] (PBL, NL 4-3 strain, Table 4), 5 nM. Also, the IC100 is 0.5 µM in experiment [1] and 0.05 µM in the experiment on HIV-1 NL 4-3 [3] (PBL, NL 4-3 strain, Table 4).
On the same counts, the results for `CC(C)C[C@H](NC(=O)[C@@H]1CCCN1C(=O)[C@H](CO)NC(=O)[C@H](Cc1ccc(O)cc1)NC(=O)CNC(=O)[C@H](CCC(N)=O)NC(=O)[C@@H](N)CCCNC(=N)N)C(=O)NCCCCC(=O)O` [RL monomer valeric acid, RQGYSPL-NHCH2CH2CH2CH2COOH] (H-RQGYSPL[Ava]-OH) are 10 nM, 50 nM, 10 nM, 0.1 µM and 1 µM.
In experiment [1], `C[C@H](NC(=O)[C@H](CCCNC(=N)N)NC(=O)CNC(=O)[C@@H]1CCCN1C(=O)CN)C(=O)N[C@@H](Cc1ccccc1)C(=O)NCCCC[C@H](NC(=O)[C@H](Cc1ccccc1)NC(=O)[C@H](C)NC(=O)[C@H](CCCNC(=N)N)NC(=O)CNC(=O)[C@@H]1CCCN1C(=O)CN)C(=O)NCCCCC(=O)O` [SPC3 dimer valeric acid, (GPGRAF)2-K—NHCH2CH2CH2CH2COOH] (I: H-GPGRAFK[Ava]-OH / II: H-GPGRAF; amide I:7-II:C; N-terminus assumed) showed a concentration for half-maximal inhibition (IC50) of 8 nM and an IC100 of 0.5 µM. In addition, the IC50 in the experiment on HIV-1 NL 4-3 [2] is 50 nM.
As for SPC3-Penetratin [S2], the “Day 4 syncitia formed” value with HIV-1 NL 4-3 [4] (0.05 μM) was “(+)”; in the experiment with HIV-1 NL 4-3 [4] (0.1 μM) it was “(+)”; in the experiment with HIV-1 NL 4-3 [4] (0.5 μM), “−”; with HIV-1 NL 4-3 [4] (1 μM), “−”; in the experiment on HIV-1 NL 4-3 [5] (0.5 μM), “−”; with HIV-1 NL 4-3 [5] (1 μM) it was “−”. In the experiment with HIV-1 NL 4-3 [5] (2 μM), the “Day 4 syncitia formed” value is reported as “−”. Besides, the “Day 5 syncitia formed” value is “+ and ++” in the experiment with HIV-1 NL 4-3 [4] (0.05 μM); “+” in the experiment on HIV-1 NL 4-3 [4] (0.1 μM); “−” in the experiment with HIV-1 NL 4-3 [4] (0.5 μM); “−” in the experiment on HIV-1 NL 4-3 [4] (1 μM); “−” with HIV-1 NL 4-3 [5] (0.5 μM); “−” in the experiment on HIV-1 NL 4-3 [5] (1 μM). In the experiment on HIV-1 NL 4-3 [5] (2 μM), the “Day 5 syncitia formed” value is listed as “−”. Moreover, the “Day 6 syncitia formed” value with HIV-1 NL 4-3 [4] (0.05 μM) is “++”; in the experiment with HIV-1 NL 4-3 [4] (0.1 μM), “+”; with HIV-1 NL 4-3 [4] (0.5 μM), “−”; in the experiment on HIV-1 NL 4-3 [4] (1 μM) it was “−”; with HIV-1 NL 4-3 [5] (0.5 μM), “−”; in the experiment on HIV-1 NL 4-3 [5] (1 μM), “−”. For the same compound, the “Day 6 syncitia formed” value with HIV-1 NL 4-3 [5] (2 μM) is reported as “−”. Further, the “Day 7 syncitia formed” value with HIV-1 NL 4-3 [4] (0.05 μM) was “++”; with HIV-1 NL 4-3 [4] (0.1 μM) it was “++”; in the experiment on HIV-1 NL 4-3 [4] (0.5 μM), “(+) and +”; in the experiment on HIV-1 NL 4-3 [4] (1 μM), “−”; with HIV-1 NL 4-3 [5] (0.5 μM), “+”; in the experiment with HIV-1 NL 4-3 [5] (1 μM), “−”. The “Day 7 syncitia formed” value with HIV-1 NL 4-3 [5] (2 μM) is on record as “−”. For the same compound, the “P 24” value with HIV-1 NL 4-3 [2] (Day 4, 0.5 μM, Table 1) is “NEG”; in the experiment with HIV-1 NL 4-3 [2] (Day 4, 0.5 μM, Table 2), 2 pg/mL; with HIV-1 NL 4-3 [2] (Day 4, 1 μM, Table 1), “NEG”; in the experiment on HIV-1 NL 4-3 [2] (Day 4, 1 μM, Table 2), “NEG”; with HIV-1 NL 4-3 [2] (Day 4, 2 μM, Table 1), “NEG”; with HIV-1 NL 4-3 [2] (Day 4, 5 μM, Table 1) it was “NEG”. In addition, the “P 24” value in the experiment on HIV-1 NL 4-3 [2] (Day 7, 0.5 μM, Table 2) was 115 pg/mL and 91 pg/mL; in the experiment with HIV-1 NL 4-3 [2] (Day 7, 1 μM, Table 1) it was 181 pg/mL and 245 pg/mL. The compound also displayed an IC100 in the experiment on HIV-1 NL 4-3 [3] (on PBL) of 0.01 µM.
Regarding SPC3-Tat [S3], the “Day 4 syncitia formed” value in the experiment on HIV-1 NL 4-3 [4] (0.05 μM) is given as “(+)”; with HIV-1 NL 4-3 [4] (0.1 μM), “(+)”; in the experiment on HIV-1 NL 4-3 [4] (0.5 μM), “−”; in the experiment on HIV-1 NL 4-3 [4] (1 μM) it was “−”; with HIV-1 NL 4-3 [5] (0.5 μM) it was “−”; in the experiment on HIV-1 NL 4-3 [5] (1 μM), “−”. Further, the “Day 4 syncitia formed” value in the experiment with HIV-1 NL 4-3 [5] (2 μM) and in the experiment with HIV-1 NL 4-3 [5] (5 μM) was “−” throughout. For the same compound, the “Day 5 syncitia formed” value in the experiment on HIV-1 NL 4-3 [4] (0.05 μM) is “+”; with HIV-1 NL 4-3 [4] (0.1 μM) it was “− and +”; with HIV-1 NL 4-3 [4] (0.5 μM), “−”; in the experiment with HIV-1 NL 4-3 [4] (1 μM), “−”; in the experiment with HIV-1 NL 4-3 [5] (0.5 μM) it was “−”; in the experiment with HIV-1 NL 4-3 [5] (1 μM) it was “−”. The “Day 5 syncitia formed” value in the experiment with HIV-1 NL 4-3 [5] (2 μM) and in the experiment with HIV-1 NL 4-3 [5] (5 μM) was “−” in each case. For the same compound, the “Day 6 syncitia formed” value is “++” in the experiment with HIV-1 NL 4-3 [4] (0.05 μM); “+” in the experiment with HIV-1 NL 4-3 [4] (0.1 μM); “−” with HIV-1 NL 4-3 [4] (0.5 μM); “−” in the experiment on HIV-1 NL 4-3 [4] (1 μM); “−” in the experiment on HIV-1 NL 4-3 [5] (0.5 μM); “−” with HIV-1 NL 4-3 [5] (1 μM). Besides, the “Day 6 syncitia formed” value with HIV-1 NL 4-3 [5] (2 μM) and in the experiment on HIV-1 NL 4-3 [5] (5 μM) was “−” throughout. The “Day 7 syncitia formed” value was “++” with HIV-1 NL 4-3 [4] (0.05 μM); “++” with HIV-1 NL 4-3 [4] (0.1 μM); “(+) and +” in the experiment on HIV-1 NL 4-3 [4] (0.5 μM); “−” in the experiment on HIV-1 NL 4-3 [4] (1 μM); “+ and (+)” in the experiment on HIV-1 NL 4-3 [5] (0.5 μM); “− and +” in the experiment on HIV-1 NL 4-3 [5] (1 μM). Further, the “Day 7 syncitia formed” value with HIV-1 NL 4-3 [5] (2 μM) and with HIV-1 NL 4-3 [5] (5 μM) was “−” each time. Besides, the “P 24” value is 61 pg/mL and 33 pg/mL with HIV-1 NL 4-3 [2] (Day 4, 0.1 μM, Table 2); “NEG” in the experiment on HIV-1 NL 4-3 [2] (Day 4, 2 μM, Table 1); “NEG” with HIV-1 NL 4-3 [2] (Day 4, 5 μM, Table 1); 3664 pg/mL and 2064 pg/mL in the experiment on HIV-1 NL 4-3 [2] (Day 7, 0.05 μM, Table 2); 787 pg/mL and 496 pg/mL in the experiment on HIV-1 NL 4-3 [2] (Day 7, 0.1 μM, Table 2). This compound displayed an IC100 in the experiment on HIV-1 NL 4-3 [3] (on PBL) of 0.1 µM.
